According to ChEMBL document CHEMBL1122352, “Synthesis and antitumor activity of 2-beta-D-ribofuranosylselenazole-4-carboxamide and related derivatives” (1983):

Key:
Format in all cases: functional
Mus musculus [1] = assay: Evaluated for median life span in mice inoculated with lewis lung carcinoma at a dose of 50 mg/kg
Mus musculus [2] = assay: Evaluated for median life span in mice inoculated with lewis lung carcinoma at a dose of 33 mg/kg
Mus musculus [3] = assay: Evaluated for median life span in mice inoculated with lewis lung carcinoma at a dose of 20 mg/kg
Mus musculus [4] = assay: Evaluated for median life span in mice inoculated with lewis lung carcinoma at a dose of 13 mg/kg
Mus musculus [5] = assay: Evaluated for median life span in mice inoculated with lewis lung carcinoma at a dose of 9 mg/kg
Mus musculus [6] = assay: Evaluated for median life span in mice inoculated with lewis lung carcinoma at a dose of 75 mg/kg
L1210 [7] = assay: Evaluated for cytotoxicity to L1210 cells; details: Mus musculus, read-out: ID50 (the source's name)
Mus musculus [8] = assay: Evaluated for increase in life span in mice inoculated with lewis lung carcinoma at a dose of 13 mg/kg
L1210 [9] = assay: Evaluated for cytotoxicity against L1210 cells; details: Mus musculus, read-out: ID50 (the source's name)
Mus musculus [10] = assay: Evaluated for increase in life span in mice inoculated with lewis lung carcinoma at a dose of 12 mg/kg (Experiment-2)
Mus musculus [11] = assay: Evaluated for increase in life span in mice inoculated with lewis lung carcinoma at a dose of 25 mg/kg (Experiment-1)
Mus musculus [12] = assay: Evaluated for increase in life span in mice inoculated with lewis lung carcinoma at a dose of 1.5 mg/kg (Experiment-2)
Mus musculus [13] = assay: Evaluated for increase in life span in mice inoculated with lewis lung carcinoma at a dose of 50 mg/kg (Experiment-1)
Mus musculus [14] = assay: Evaluated for median life span in mice inoculated with lewis lung carcinoma at a dose of 50 mg/kg (Experiment-1)
Mus musculus [15] = assay: Evaluated for median life span in mice inoculated with lewis lung carcinoma at a dose of 24 mg/kg (Experiment-2)
Mus musculus [16] = assay: Evaluated for median life span in mice inoculated with lewis lung carcinoma at a dose of 6 mg/kg (Experiment-2)
Mus musculus [17] = assay: Evaluated for increase in life span in mice inoculated with lewis lung carcinoma at a dose of 100 mg/kg (Experiment-1)
Mus musculus [18] = assay: Evaluated for median life span in mice inoculated with lewis lung carcinoma at a dose of 12 mg/kg (Experiment-1)
Mus musculus [19] = assay: Evaluated for median life span in mice inoculated with lewis lung carcinoma at a dose of 200 mg/kg (Experiment-1)
Mus musculus [20] = assay: Evaluated for increase in life span in mice inoculated with lewis lung carcinoma at a dose of 3 mg/kg (Experiment-2)
Mus musculus [21] = assay: Evaluated for median life span in mice inoculated with lewis lung carcinoma at a dose of 25 mg/kg (Experiment-1)
Mus musculus [22] = assay: Evaluated for median life span in mice inoculated with lewis lung carcinoma at a dose of 12 mg/kg (Experiment-2)
Mus musculus [23] = assay: Evaluated for increase in life span in mice inoculated with lewis lung carcinoma at a dose of 12 mg/kg (Experiment-1)
Mus musculus [24] = assay: Evaluated for increase in life span in mice inoculated with lewis lung carcinoma at a dose of 6 mg/kg (Experiment-2)
Mus musculus [25] = assay: Evaluated for median life span in mice inoculated with lewis lung carcinoma at a dose of 3 mg/kg (Experiment-2)
Mus musculus [26] = assay: Evaluated for median life span in mice inoculated with lewis lung carcinoma at a dose of 1.5 mg/kg (Experiment-2)
Mus musculus [27] = assay: Evaluated for median life span in mice inoculated with lewis lung carcinoma at a dose of 100 mg/kg (Experiment-1)
P388 = assay: Evaluated for cytotoxicity against P-388 cells; details: Mus musculus, read-out: ID50 (the source's name)
Mus musculus [28] = assay: Evaluated for increase in life span in mice inoculated with lewis lung carcinoma at a dose of 24 mg/kg (Experiment-2)

SMILES: NC(=O)c1c[se]c([C@@H]2O[C@H](COP(=O)(O)O)[C@@H](O)[C@H]2O)n1
- MLS (Mus musculus [1]): 12.5 days
- MLS (Mus musculus [2]): 12.5 days
- MLS (Mus musculus [3]): 12 days
- MLS (Mus musculus [4]): 60 days
- MLS (Mus musculus [5]): 12.5 days
- MLS (Mus musculus [6]): 15.5 days
- IC50 (L1210 [7]): 390 nM
- ILS at 13 mg/kg (Mus musculus [8]): 215%

SMILES: NC(=O)c1csc([C@@H]2O[C@H](CO)[C@@H](O)[C@H]2O)n1 [TIAZOFURIN]
- IC50 (L1210 [9]): 1950 nM

SMILES: NC(=O)c1c[se]c([C@@H]2O[C@H](CO)[C@@H](O)[C@H]2O)n1
- ILS at 12 mg/kg (Mus musculus [10]): 197%
- ILS at 25 mg/kg (Mus musculus [11]): 255%
- ILS at 1.5 mg/kg (Mus musculus [12]): 10%
- ILS at 50 mg/kg (Mus musculus [13]): 255%
- MLS (Mus musculus [14]): 60 days
- MLS (Mus musculus [15]): 60 days
- MLS (Mus musculus [16]): 60 days
- ILS at 100 mg/kg (Mus musculus [17]): 20%
- MLS (Mus musculus [18]): 60 days
- MLS (Mus musculus [19]): 10.7 days
- ILS at 3 mg/kg (Mus musculus [20]): 53%
- IC50 (L1210 [9]): 400 nM
- MLS (Mus musculus [21]): 60 days
- MLS (Mus musculus [22]): 60 days
- ILS at 12 mg/kg (Mus musculus [23]): 255%
- ILS at 6 mg/kg (Mus musculus [24]): 197%
- MLS (Mus musculus [25]): 31 days
- MLS (Mus musculus [26]): 22 days
- MLS (Mus musculus [27]): 20.3 days
- IC50 (P388): 300 nM
- ILS at 24 mg/kg (Mus musculus [28]): 197%
